The record followed here is article PMC3124771 (Journal of immunology (Baltimore, Md. : 1950), 2011).

The assay relates to DR0301-restricted E2_281-300-specific T-cell line. As to the kind of experiment: Tetramer staining of sorted T-cell line with peptide-loaded DR0301 tetramers. The assay is classed as cell-based, human. To be noted: quadrant boundary set by unloaded tetramer (Figure 2B).

On to “E2_285-300: truncated version of E2_281-300; minimal epitope”, for which the “Staining of T-cell line with tetramers loaded with peptide” value is on record as “could be stained”.
